Source: US5968952A, “Farnesyl transferase inhibiting 2-quinolone derivatives” (Janssen Pharmaceutica, N.V., priority 1995, dated 1999)

Target: T1, Human farnesyl protein transferase (Homo sapiens, UniProt P49354+P49356)
T1 construct: were used as a source of human enzyme; endogenous in cells; host or cells: Kirsten virus transformed human osteosarcoma (KHOS) cells (ATCC), grown as monolayers or as solid tumors in nude mice; ammonium sulfate fraction and Q Sepharose pool
Experiment: In Vitro Assay for Inhibition of Farnesyl Protein Transferase ([3H] Scintillation Proximity Assay)
Assay type: biochemical
Conditions: Table 7; human enzyme from KHOS cells; biotinylated lamin B peptide substrate; 60 min, 37° C.; read-out: IC50 (concentration of test compound producing 50% inhibition of enzyme activity)
Procedure: In Vitro Assay for Inhibition of Farnesyl Protein Transferase Human farnesyl protein transferase was prepared essentially as described ([…] al., Methods: A Companion to Methods in Enzymology vol 1, 241-245, 1990). Kirsten virus transformed human osteosarcoma (KHOS) cells (American Type Culture Collection, Rockvill, Md., USA) grown as solid tumors in nude mice or grown as monolayer cell cultures were used as a source of human enzyme. Briefly, cells or tumors were homogenized in buffer containing 50 mM Tris, 1 mM EDTA, 1 mM EGTA and 0.2 mM phenylmethylsulfonylfluoride (pH 7.5). The homogenates were centrifuged 28,000× g for 60 min and the supernatants collected. A 30-50% ammonium sulfate […] prepared, and the resulting precipitate was resuspended in a small (10 to 20 ml) volume of dialysis buffer containing 20 mM Tris, 1 mM dithiothreitol and 20 μM ZnCl2. The ammonium sulfate fraction was dialyzed overnight against two changes of the same buffer. The dialyzed material was applied to a 10×1 cm Q Fast Flow Sepharose (Pharmacia LKB Biotechnology Inc., Piscataway, N.J., USA) which had been preequilibrated with 100 ml of dialysis buffer supplemented with 0.05M NaCl. The column was washed with an additional 50 ml of dialysis buffer plus 0.05M NaCl followed by a gradient from 0.05M to 0.25M NaCl prepared in dialysis buffer. The enzyme activity was eluted with a linear gradient of 0.25 to 1.0M NaCl prepared in the dialysis buffer. Fractions containing 4 to 5 ml volumes of column eluate were collected and analyzed for farnesyl protein transferase activity. Fractions with enzyme activity were pooled and supplemented with 100 μM ZnCl2. Enzyme samples were stored frozen at -70° C. The activity of farnesyl protein transferase was measured using the Farnesyl Transferase [^3 H] Scintillation Proximity Assay (Amersham International plc., England) under the conditions specified by the manufacturer. […] The reaction mixture was warmed to 37° C. The enzyme reaction was started by adding 20 μl of diluted human farnesyl protein transferase. […] Reactions were terminated by the addition of STOP/scintillation proximity bead reagent (Amersham). The reaction product [^3 H]-farnesyl-(Cys)-biotin lamin B peptide was captured on the streptavidin linked scintillation proximity bead. The amount of [^3 H]-farnesyl-(Cys)-biotin lamin B peptide synthesized in the presence or absence of test compounds was quantified as cpm by counting on a Wallac Model 1480 Microbeta Liquid Scintillation Counter. The cpm of product was considered to be farnesyl protein transferase activity. The protein farnesyl transferase activity observed in the presence of test compound was normalized to farnesyl transferase activity in the presence of 10% DMSO and expressed as per cent inhibition. […] W. Johnson Pharmaceutical Research Institue (Spring House, Pa., USA) on a VAX computer.

How did the IC50 turn out when `Cc1ccc(C(c2ccc3[nH]c(=O)cc(-c4ccccc4)c3c2)n2ccnc2)cc1` (centres unmarked) [Compound 25] was run?
The IC50 was 0.262 µM.

How did the IC50 turn out when `Cc1ccc(-c2cc(=O)[nH]c3ccc(C(c4ccc(Cl)cc4)n4ccnc4)cc23)cc1` (centres unmarked) [Compound 27] was run?
The IC50 was 0.193 µM.

With `O=c1cc(-c2cccc(Cl)c2)c2cc(C(c3ccc(Cl)cc3)n3ccnc3)ccc2[nH]1` (centres unmarked) [Compound 13, 4-(3-chlorophenyl)-6-[(4-chlorophenyl)-1H-imidazol-1-ylmethyl]-2(1H)-quinolinone] as the compound, how does the IC50 read?
The IC50 was 0.034 µM.

With `O=c1cc(-c2ccc(Cl)c(Cl)c2)c2cc(C(c3ccc(Cl)cc3)n3ccnc3)ccc2[nH]1` (centres unmarked) [Compound 26] as the compound, how does the IC50 read?
The IC50 was 0.227 µM.

For `O=c1cc(-c2ccccc2)c2cc(C(c3ccc(Cl)cc3Cl)n3ccnc3)ccc2[nH]1` (centres unmarked) [Compound 31], which IC50 is on record?
The IC50 was 0.48 µM.

For `Cn1c(=O)cc(-c2ccccc2)c2cc(C(c3ccc(Cl)cc3)n3ccnc3)ccc21` (racemic) [Compound 8, (±)-6-[(4-chlorophenyl)-1H-imidazol-1-yl-methyl]-1-methyl-4-phenyl-2(1H)-quinolinone], which IC50 is on record?
Its IC50 is 0.07 µM.

`COC(=O)C(CC(C)C)NC(=O)Cn1c(=O)cc(-c2ccccc2)c2cc(C(c3ccc(Cl)cc3)n3ccnc3)ccc21` (racemic) [Compound 39] was tested. Which IC50 did it give?
The IC50 was 0.047 µM.

With `O=c1cc(-c2ccccc2)c2cc(C(c3ccc(F)cc3)n3ccnc3)ccc2[nH]1` (centres unmarked) [Compound 4] as the compound, how does the IC50 read?
The IC50 was 0.315 µM.

Which IC50 does the source give for `COc1ccc(CCn2c(=O)cc(-c3ccccc3)c3cc(C(c4ccc(Cl)cc4)n4ccnc4)ccc32)cc1` (centres unmarked) [Compound 29] here?
Its IC50 is 2.4 µM.

`O=c1cc(-c2ccccc2)c2cc(C(c3ccc(Cl)cc3)n3ccnc3)ccc2[nH]1` (centres unmarked) [Compound 2] was tested. Which IC50 did it give?
The IC50 was 0.18 µM.

With `O=c1cc(-c2ccccc2)c2cc(C(c3cccc(Cl)c3)n3ccnc3)ccc2[nH]1` (centres unmarked) [Compound 3] as the compound, how does the IC50 read?
The IC50 was 1.4 µM.

For `CCOC(=O)Cn1c(=O)cc(-c2ccccc2)c2cc(C(c3ccc(Cl)cc3)n3ccnc3)ccc21` (centres unmarked) [Compound 17], which IC50 is on record?
The IC50 was 0.23 µM.

Which IC50 does the source give for `COc1cccc(-c2cc(=O)[nH]c3ccc(C(c4ccc(Cl)cc4)n4ccnc4)cc23)c1` (centres unmarked) [Compound 24] here?
Its IC50 is 0.032 µM.

For `O=c1cc(-c2cccc(C(F)(F)F)c2)c2cc(C(c3ccc(Cl)cc3)n3ccnc3)ccc2[nH]1` (centres unmarked) [Compound 20], which IC50 is on record?
The IC50 was 0.24 µM.

How did the IC50 turn out when `Cc1ccccc1-c1cc(=O)[nH]c2ccc(C(c3ccc(Cl)cc3)n3ccnc3)cc12` (centres unmarked) [Compound 28] was run?
The IC50 was 2.2 µM.

Which IC50 does the source give for `COc1ccc(C(c2ccc3[nH]c(=O)cc(-c4ccccc4)c3c2)n2ccnc2)cc1` (centres unmarked) [Compound 33] here?
The IC50 was 0.85 µM.

How did the IC50 turn out when `O=c1cc(-c2ccccc2)c2cc(C(c3ccc(Cl)cc3)n3cnc(-c4ccccc4)c3)ccc2[nH]1` (centres unmarked) [Compound 47] was run?
The IC50 was 0.105 µM.

How did the IC50 turn out when `CC(c1ccc(Cl)cc1)(c1ccc2[nH]c(=O)cc(-c3ccccc3)c2c1)n1ccnc1` (centres unmarked) [Compound 58] was run?
Its IC50 is 0.27 µM.

How did the IC50 turn out when `O=c1cc(-c2ccccc2)c2cc(C(c3ccc(Cl)cc3)n3ccnc3)ccc2n1Cc1ccccc1` (centres unmarked) [Compound 10] was run?
The IC50 was 0.22 µM.

`Cn1c(=O)cc(-c2cccc(Cl)c2)c2cc(C(C)(c3ccc(Cl)cc3)n3ccnc3)ccc21` (racemic) [Compound 62, (±)-4-(3-chlorophenyl)-6-[1-(4-chlorophenyl)-1-(1H-imidazol-1-yl)ethyl]-1-methyl-2(1H)-quinolinone] was tested. Which IC50 did it give?
The IC50 was 0.022 µM.

Which IC50 does the source give for `Cn1c(=O)cc(-c2cccc(Cl)c2)c2cc(C(c3ccc(Cl)cc3)n3ccnc3)ccc21` (centres unmarked) [Compound 15, 4-(3-chlorophenyl)-6-[(4-chlorophenyl)-1H-imidazol-1-ylmethyl]-1-methyl-2(1H)-quinolinone] here?
Its IC50 is 0.016 µM.

With `CCCn1c(=O)cc(-c2ccccc2)c2cc(C(c3ccc(Cl)cc3)n3ccnc3)ccc21` (centres unmarked) [Compound 14] as the compound, how does the IC50 read?
Its IC50 is 0.7 µM.

With `Cn1c(=O)cc(-c2ccccc2)c2cc(C(CO)(c3ccc(Cl)cc3)n3ccnc3)ccc21` (racemic) [Compound 59, (±)-6-[1-(4-chlorophenyl)-2-hydroxy-1-(1H-imidazol-1-yl)ethyl]-1-methyl-4-phenyl-2(1H)-quinolinone monohydrate] as the compound, how does the IC50 read?
The IC50 was 0.013 µM.

Which IC50 does the source give for `O=c1cc(-c2ccccc2Cl)c2cc(C(c3ccc(Cl)cc3)n3ccnc3)ccc2[nH]1` (centres unmarked) [Compound 12] here?
Its IC50 is 3.2 µM.

Which IC50 does the source give for `O=c1cc(-c2cccc(Br)c2)c2cc(C(c3ccc(Cl)cc3)n3ccnc3)ccc2[nH]1` (centres unmarked) [Compound 30] here?
The IC50 was 0.021 µM.

`O=c1cc(-c2ccc(Cl)cc2)c2cc(C(c3ccc(Cl)cc3)n3ccnc3)ccc2[nH]1` (centres unmarked) [Compound 11] was tested. Which IC50 did it give?
The IC50 was 0.32 µM.

Which IC50 does the source give for `O=c1cc(-c2cc(Cl)cc(Cl)c2)c2cc(C(c3ccc(Cl)cc3)n3ccnc3)ccc2[nH]1` (centres unmarked) [Compound 37] here?
Its IC50 is 0.096 µM.

Which IC50 does the source give for `O=c1cc(-c2ccccc2)c2cc(C(c3ccccc3Cl)n3ccnc3)ccc2[nH]1` (centres unmarked) [Compound 32] here?
Its IC50 is 0.53 µM.

How did the IC50 turn out when `O=c1cc(-c2cccc(F)c2)c2cc(C(c3ccc(Cl)cc3)n3ccnc3)ccc2[nH]1` (centres unmarked) [Compound 21] was run?
Its IC50 is 0.15 µM.

How did the IC50 turn out when `CCCC(c1ccc(Cl)cc1)(c1ccc2c(c1)c(-c1cccc(Cl)c1)cc(=O)n2C)n1ccnc1` (centres unmarked) [Compound 65] was run?
Its IC50 is 0.051 µM.

For `Cc1cncn1C(c1ccc(Cl)cc1)c1ccc2[nH]c(=O)cc(-c3cccc(Cl)c3)c2c1` (centres unmarked) [Compound 53], which IC50 is on record?
The IC50 was 0.032 µM.

For `Oc1cc(-c2ccccc2)c2cc(C(c3ccc(Cl)cc3)n3ccnc3)ccc2n1` (single isomer, unassigned; (-)) [Compound 7, (-)-(B)-6-[(4-chlorophenyl)-1H-imidazol-1-ylmethyl]-4-phenyl-2(1H)-quinolinone], which IC50 is on record?
Its IC50 is 0.11 µM.

Which IC50 does the source give for `Cc1cccc(-c2cc(=O)[nH]c3ccc(C(c4ccc(Cl)cc4)n4ccnc4)cc23)c1` (centres unmarked) [Compound 18] here?
Its IC50 is 0.04 µM.

With `Cc1cncn1C(c1ccc(Cl)cc1)c1ccc2[nH]c(=O)cc(-c3ccccc3)c2c1` (centres unmarked) [Compound 49] as the compound, how does the IC50 read?
The IC50 was 0.3 µM.

How did the IC50 turn out when `O=C1CC(c2ccccc2)c2cc(C(c3ccc(Cl)cc3)n3ccnc3)ccc2N1` (racemic) [Compound 57, (±)-6-[(4-chlorophenyl)-1H-imidazol-1-ylmethyl]-3,4-dihydro-4-phenyl-2(1H)-quinolinone] was run?
Its IC50 is 1.2 µM.

For `O=c1cc(-c2ccccc2)c2cc(C(c3ccccc3)n3ccnc3)ccc2[nH]1` (racemic) [Compound 1, (±)-6-[(1H-imidazol-1-yl)phenylmethyl]-4-phenyl-2(1H)-quinolinone], which IC50 is on record?
Its IC50 is 0.93 µM.

How did the IC50 turn out when `O=c1cc(-c2ccccc2)c2cc(C(c3ccc(Cl)c(Cl)c3)n3ccnc3)ccc2[nH]1` (centres unmarked) [Compound 34] was run?
Its IC50 is 0.6 µM.

Tested on: NIH 3T3 cells transformed by the T24 activated human H-ras gene
Experiment: Ras-Transformed Cell Phenotype Reversion Assay
Assay type: cell-based, mouse
Conditions: NIH3T3; Table 8; T24 H-ras transformed NIH 3T3 cells; 72 hours; cell counts
Excerpt: "Ras-Transformed Cell Phenotype Reversion Assay" Insertion of activated oncogenes such as the mutant ras gene into mouse NIH 3T3 cells converts the cells to a transformed phenotype. The cells become tumorigenic, display anchorage independent growth in semi-solid medium and lose contact inhibition. Loss of contact inhibition produces cell cultures which no longer form uniform monolayers. Rather, the cells pile up into multicellular nodules and grow to very high saturation densities in plastic tissue culture dishes. Agents such as protein farnesyl transferase inhibitors which revert the ras transformed phenotype restore the uniform monolayer growth pattern to cells in culture. This reversion is easily monitored by counting the number of cells in tissue culture plates. Transformed cells will achieve higher cell numbers than cells which have reverted to an untransformed phenotype. Compounds which revert the transformed phenotype should produce antitumor effects in tumors bearing ras gene mutations. Method Compounds are screened in tissue culture in NIH 3T3 cells transformed by the T24 activated human H-ras gene. Cells are seeded at an initial density of 200,000 cells per well (9.6 cm^2 surface area) in six-well cluster tissue culture plates. Test compounds are immediately added to 3.0 ml cell growth mediuim in a 3.0 μl volume of DMSO, with a final concentration of DMSO in the cell growth medium of 0.1%. […] Then the cells are detached in 1.0 ml trypsin-EDTA cell dissociation medium and counted on a Coulter particle counter. Measurements Cell numbers expressed as cells per well are measured using a Coulter Particle Counter. All cell counts were corrected for the initial cell input density by subtracting 200,000. Control cell counts=[cell counts from cells incubated with DMSO vehicle--200,000] Test compound cell counts=[cell counts from cells incubated with test compound--200,000]. [formula]

`Cc1cc(C(c2ccc(Cl)cc2)n2ccnc2)cc2c(-c3cccc(Cl)c3)cc(=O)n(C)c12` (centres unmarked) [Compound 89] was tested. Which IC50 did it give?
Its IC50 is 0.445 µM.

For `CCCOc1cccc(-c2cc(=O)n(C)c3ccc(C(c4ccc(Cl)cc4)n4ccnc4)cc23)c1` (racemic) [Compound 74, (±)-6-[(4-chlorophenyl)-1H-imidazol-1-ylmethyl]-1-methyl-4-(3-propoxyphenyl)-2(1H)-quinolinone ethanedioate (2:3).sesquihydrate], which IC50 is on record?
Its IC50 is 0.5 µM.

How did the IC50 turn out when `CSCC(c1ccc(Cl)cc1)(c1ccc2c(c1)c(-c1cccc(Cl)c1)cc(=O)n2C)n1ccnc1` (centres unmarked) [Compound 69] was run?
Its IC50 is 0.5 µM.

With `COCC(c1ccc(Cl)cc1)(c1ccc2c(c1)c(-c1cccc(Cl)c1)cc(=O)n2C)n1ccnc1` (centres unmarked) [Compound 67] as the compound, how does the IC50 read?
Its IC50 is 0.114 µM.
